Assay results published in article PMC8269116 (Journal of psychopharmacology (Oxford, England), 2019).
Values joined by “and” are separate entries in the source; they are usually repeats but may differ in a detail not shown here. Identical values can stand only once. Like-named read-outs stand apart in the source and are kept apart here.

Key:
dopamine D2 receptors = dopamine D2 receptors (Homo sapiens, UniProt P14416); assay: Radioligand binding, [3H]spiperone displacement
5-HT2A receptor = 5-HT2A receptor (Homo sapiens, UniProt P28223); assay: Radioligand binding, [3H]ketanserin displacement
[1] = target: human 5-HT transporter (SERT) (Homo sapiens, UniProt P31645); assay: [3H]5-HT uptake inhibition in HEK 293 cells overexpressing human SERT; assay type: cell-based
SERT = SERT (Homo sapiens, UniProt P31645); assay: Radioligand binding, [3H]citalopram displacement
DAT [2] = target: T1, DAT (Homo sapiens, UniProt Q01959); assay: Radioligand binding, [3H]WIN35,428 displacement
mouse TAAR1 = mouse TAAR1 (Mus musculus, UniProt Q923Y8); assay: Radioligand binding, [3H]RO5166017 displacement
NET [3] = target: T2, NET (Homo sapiens, UniProt P23975); assay: [3H]norepinephrine uptake inhibition in HEK 293 cells overexpressing human NET; assay type: cell-based
rat TAAR1 = rat TAAR1 (Rattus norvegicus, UniProt Q923Y9); assay: Radioligand binding, [3H]RO5166017 displacement
NET [4] = target: T2, NET; assay: Radioligand binding, N-methyl-[3H]nisoxetine displacement
DAT [5] = target: T1, DAT; assay: [3H]dopamine uptake inhibition in HEK 293 cells overexpressing human DAT; assay type: cell-based; settings: for increase of dopamine uptake: anomalous increase at some concentrations, non-sigmoidal curves; for DAT/SERT ratio: 1/DAT IC50 : 1/SERT IC50, mean and 95% confidence interval
[6] = target: T3, α1 adrenergic receptor (α1A) (Homo sapiens, UniProt P35348); assay: Radioligand binding, [3H]prazosin displacement
T3 sequence (P35348 1-466): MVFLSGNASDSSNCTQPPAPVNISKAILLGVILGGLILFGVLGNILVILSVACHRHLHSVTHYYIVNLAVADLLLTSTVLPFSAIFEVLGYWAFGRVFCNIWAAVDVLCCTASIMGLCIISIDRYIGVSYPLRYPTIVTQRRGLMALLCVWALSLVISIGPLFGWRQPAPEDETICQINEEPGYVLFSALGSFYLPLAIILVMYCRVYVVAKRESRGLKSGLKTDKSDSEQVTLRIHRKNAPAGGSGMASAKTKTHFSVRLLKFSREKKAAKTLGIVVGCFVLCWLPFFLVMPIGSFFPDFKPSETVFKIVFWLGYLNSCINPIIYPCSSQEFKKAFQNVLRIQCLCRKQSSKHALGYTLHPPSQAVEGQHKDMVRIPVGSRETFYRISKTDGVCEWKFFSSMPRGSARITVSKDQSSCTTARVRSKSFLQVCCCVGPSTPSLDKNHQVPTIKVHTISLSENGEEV

5-HT2C receptor = target: T4, 5-HT2C receptor (Homo sapiens, UniProt P28335); assay: biochemical; assay type: binding
T4 sequence (P28335 33-458): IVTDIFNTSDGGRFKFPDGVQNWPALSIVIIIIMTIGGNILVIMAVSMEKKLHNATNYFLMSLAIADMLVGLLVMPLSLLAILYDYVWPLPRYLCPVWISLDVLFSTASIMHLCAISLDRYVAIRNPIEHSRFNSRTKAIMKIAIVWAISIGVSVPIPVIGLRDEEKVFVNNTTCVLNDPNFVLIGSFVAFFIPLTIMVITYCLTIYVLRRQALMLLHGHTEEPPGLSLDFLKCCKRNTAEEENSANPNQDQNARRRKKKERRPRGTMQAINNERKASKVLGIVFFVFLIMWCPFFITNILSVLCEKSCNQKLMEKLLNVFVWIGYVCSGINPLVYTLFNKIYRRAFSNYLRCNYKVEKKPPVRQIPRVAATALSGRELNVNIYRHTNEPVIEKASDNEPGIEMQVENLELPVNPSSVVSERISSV

[7] = target: T5, α2 adrenergic receptor (α2A) (Homo sapiens, UniProt P08913); assay: Radioligand binding, [3H]rauwolscine displacement
T5 sequence (P08913 1-465): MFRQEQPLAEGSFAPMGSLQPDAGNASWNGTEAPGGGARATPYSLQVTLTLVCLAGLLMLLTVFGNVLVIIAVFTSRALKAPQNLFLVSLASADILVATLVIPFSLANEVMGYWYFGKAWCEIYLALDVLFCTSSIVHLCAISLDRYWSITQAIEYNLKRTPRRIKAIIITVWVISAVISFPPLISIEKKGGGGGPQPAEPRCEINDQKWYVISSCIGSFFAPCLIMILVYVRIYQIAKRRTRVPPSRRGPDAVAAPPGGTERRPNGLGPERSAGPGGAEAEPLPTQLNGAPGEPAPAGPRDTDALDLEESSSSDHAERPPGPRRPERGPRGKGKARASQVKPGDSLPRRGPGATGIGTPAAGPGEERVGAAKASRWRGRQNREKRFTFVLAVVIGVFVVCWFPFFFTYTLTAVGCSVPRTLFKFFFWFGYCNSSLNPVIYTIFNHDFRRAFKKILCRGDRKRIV

5-HT1A receptor = target: T6, 5-HT1A receptor (Homo sapiens, UniProt P08908); assay: Radioligand binding, [3H]8-hydroxy-2-
T6 sequence (P08908 1-422): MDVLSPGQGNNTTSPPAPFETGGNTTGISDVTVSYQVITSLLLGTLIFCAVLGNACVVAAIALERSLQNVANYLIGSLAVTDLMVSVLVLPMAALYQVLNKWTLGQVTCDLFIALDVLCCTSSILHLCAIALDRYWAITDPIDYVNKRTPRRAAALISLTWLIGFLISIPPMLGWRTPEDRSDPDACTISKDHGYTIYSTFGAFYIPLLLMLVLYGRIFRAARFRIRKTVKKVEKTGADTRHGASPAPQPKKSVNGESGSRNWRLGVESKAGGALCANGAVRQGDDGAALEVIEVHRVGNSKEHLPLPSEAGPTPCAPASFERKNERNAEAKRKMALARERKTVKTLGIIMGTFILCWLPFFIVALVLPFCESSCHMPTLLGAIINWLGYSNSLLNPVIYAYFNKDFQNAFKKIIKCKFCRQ

[8] = after subcutaneous methylone, ref Stefkova et al., 2017, cited from earlier work
[9] = rat plasma, ref Elmore et al., 2017, cited from earlier work; for amount in plasma as % of parent compound methylone: subcutaneous injections of methylone; for time at which Cmax was reached: subcutaneous methylone
[10] = rats, ref Anizan et al., 2016, cited from earlier work; for maximal concentration as % of the parent compound MDPV: subcutaneous 0.5–2 mg/kg MDPV; for Tmax: subcutaneous injections of 0.5–2 mg/kg MDPV
[11] = healthy human subjects, oral MDMA; ref Schmid et al., 2016; cited from earlier work
[12] = read-out: 5-HT2A Ki, mean±SD, n=3
[13] = read-out: SERT IC50, 5-HT uptake inhibition, mean and 95% confidence interval
[14] = read-out: SERT Ki, mean±SD, n=3
[15] = read-out: 5-HT2c Ki, mean±SD, n=3
[16] = read-out: TAAR1mouse Ki, mean±SD, n=3
[17] = read-out: 5-HT1A Ki, mean±SD, n=3
[18] = read-out: TAAR1rat Ki, mean±SD, n=3

rat TAAR1, sequence (Q923Y9 whole entry): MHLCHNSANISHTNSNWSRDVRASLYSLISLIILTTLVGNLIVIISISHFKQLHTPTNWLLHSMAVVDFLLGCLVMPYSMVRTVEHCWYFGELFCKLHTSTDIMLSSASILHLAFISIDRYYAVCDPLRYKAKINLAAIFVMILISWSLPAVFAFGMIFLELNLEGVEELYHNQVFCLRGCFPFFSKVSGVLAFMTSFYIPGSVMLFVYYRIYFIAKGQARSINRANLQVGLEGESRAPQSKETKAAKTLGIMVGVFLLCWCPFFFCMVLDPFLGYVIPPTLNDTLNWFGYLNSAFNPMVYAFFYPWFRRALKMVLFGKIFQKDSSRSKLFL
T2 sequence (P23975 whole entry): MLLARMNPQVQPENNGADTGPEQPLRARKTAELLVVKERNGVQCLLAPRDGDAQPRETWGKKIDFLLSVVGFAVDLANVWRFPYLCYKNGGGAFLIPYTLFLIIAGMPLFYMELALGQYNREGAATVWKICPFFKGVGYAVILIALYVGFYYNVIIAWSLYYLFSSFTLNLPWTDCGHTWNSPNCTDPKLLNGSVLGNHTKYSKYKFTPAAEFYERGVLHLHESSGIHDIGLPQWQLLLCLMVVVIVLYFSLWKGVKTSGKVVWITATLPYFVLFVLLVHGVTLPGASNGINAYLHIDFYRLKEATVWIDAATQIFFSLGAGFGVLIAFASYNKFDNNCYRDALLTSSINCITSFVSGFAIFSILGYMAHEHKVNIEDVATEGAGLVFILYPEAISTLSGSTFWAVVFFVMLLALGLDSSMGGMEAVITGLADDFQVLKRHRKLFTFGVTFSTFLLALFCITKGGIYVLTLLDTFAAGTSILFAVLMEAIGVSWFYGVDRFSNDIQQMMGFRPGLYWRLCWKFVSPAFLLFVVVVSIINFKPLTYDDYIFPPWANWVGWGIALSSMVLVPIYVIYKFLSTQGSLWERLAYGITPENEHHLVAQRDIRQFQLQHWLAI
mouse TAAR1, sequence (Q923Y8 whole entry): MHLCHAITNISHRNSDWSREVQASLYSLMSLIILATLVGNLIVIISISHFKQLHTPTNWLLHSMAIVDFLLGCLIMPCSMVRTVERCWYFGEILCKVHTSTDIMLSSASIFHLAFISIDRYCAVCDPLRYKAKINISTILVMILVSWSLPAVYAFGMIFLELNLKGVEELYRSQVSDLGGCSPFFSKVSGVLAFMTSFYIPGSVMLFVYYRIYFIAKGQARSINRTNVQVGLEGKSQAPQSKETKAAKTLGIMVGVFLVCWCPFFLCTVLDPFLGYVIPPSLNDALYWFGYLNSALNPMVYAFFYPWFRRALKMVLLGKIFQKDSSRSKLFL
5-HT2A receptor, sequence (P28223 whole entry): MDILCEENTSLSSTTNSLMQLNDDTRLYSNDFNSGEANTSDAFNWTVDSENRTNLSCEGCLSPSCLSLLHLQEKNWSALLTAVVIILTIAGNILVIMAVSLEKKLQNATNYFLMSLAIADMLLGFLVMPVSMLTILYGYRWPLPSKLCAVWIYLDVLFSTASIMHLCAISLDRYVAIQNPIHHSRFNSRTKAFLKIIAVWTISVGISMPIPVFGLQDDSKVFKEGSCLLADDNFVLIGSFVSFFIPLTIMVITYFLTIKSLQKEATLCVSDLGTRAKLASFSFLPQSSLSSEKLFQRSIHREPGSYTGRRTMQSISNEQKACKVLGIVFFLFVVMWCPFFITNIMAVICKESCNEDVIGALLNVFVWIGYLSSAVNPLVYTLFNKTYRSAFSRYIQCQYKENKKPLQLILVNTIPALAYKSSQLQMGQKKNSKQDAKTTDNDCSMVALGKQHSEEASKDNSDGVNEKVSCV
T1 sequence (Q01959 whole entry): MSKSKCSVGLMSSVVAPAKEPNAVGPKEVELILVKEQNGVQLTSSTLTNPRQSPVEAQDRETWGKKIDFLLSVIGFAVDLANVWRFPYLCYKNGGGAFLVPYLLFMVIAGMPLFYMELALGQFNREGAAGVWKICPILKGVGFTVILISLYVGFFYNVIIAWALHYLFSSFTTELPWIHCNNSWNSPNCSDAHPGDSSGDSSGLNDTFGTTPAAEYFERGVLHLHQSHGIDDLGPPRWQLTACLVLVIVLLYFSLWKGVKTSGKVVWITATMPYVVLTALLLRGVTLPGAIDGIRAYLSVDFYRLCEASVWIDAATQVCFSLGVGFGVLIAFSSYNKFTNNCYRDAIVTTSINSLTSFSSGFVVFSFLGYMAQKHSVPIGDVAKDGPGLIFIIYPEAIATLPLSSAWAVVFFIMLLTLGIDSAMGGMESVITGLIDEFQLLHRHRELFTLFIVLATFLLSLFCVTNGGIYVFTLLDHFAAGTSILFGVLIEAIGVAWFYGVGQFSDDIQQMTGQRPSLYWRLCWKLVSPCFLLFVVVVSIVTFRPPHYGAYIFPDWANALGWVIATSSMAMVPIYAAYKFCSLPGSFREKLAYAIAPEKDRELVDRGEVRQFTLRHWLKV
SERT, sequence (P31645 whole entry): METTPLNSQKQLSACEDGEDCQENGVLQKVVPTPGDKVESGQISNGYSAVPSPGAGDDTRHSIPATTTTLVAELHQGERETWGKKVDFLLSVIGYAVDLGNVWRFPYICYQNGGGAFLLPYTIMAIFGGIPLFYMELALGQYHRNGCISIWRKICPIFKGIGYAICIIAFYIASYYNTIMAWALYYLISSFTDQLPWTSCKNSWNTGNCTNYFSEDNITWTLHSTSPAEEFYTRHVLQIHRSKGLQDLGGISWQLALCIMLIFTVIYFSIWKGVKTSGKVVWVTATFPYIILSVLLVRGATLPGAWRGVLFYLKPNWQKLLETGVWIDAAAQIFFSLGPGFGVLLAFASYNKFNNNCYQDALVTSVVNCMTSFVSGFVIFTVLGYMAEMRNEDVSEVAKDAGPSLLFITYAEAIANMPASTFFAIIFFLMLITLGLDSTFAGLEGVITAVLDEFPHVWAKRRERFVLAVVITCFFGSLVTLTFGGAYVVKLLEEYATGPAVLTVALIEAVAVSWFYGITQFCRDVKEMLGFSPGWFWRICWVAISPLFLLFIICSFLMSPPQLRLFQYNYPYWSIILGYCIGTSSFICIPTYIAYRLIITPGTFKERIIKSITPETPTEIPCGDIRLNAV
human 5-HT transporter (SERT), sequence (P31645 whole entry): as above
dopamine D2 receptors, sequence (P14416 whole entry): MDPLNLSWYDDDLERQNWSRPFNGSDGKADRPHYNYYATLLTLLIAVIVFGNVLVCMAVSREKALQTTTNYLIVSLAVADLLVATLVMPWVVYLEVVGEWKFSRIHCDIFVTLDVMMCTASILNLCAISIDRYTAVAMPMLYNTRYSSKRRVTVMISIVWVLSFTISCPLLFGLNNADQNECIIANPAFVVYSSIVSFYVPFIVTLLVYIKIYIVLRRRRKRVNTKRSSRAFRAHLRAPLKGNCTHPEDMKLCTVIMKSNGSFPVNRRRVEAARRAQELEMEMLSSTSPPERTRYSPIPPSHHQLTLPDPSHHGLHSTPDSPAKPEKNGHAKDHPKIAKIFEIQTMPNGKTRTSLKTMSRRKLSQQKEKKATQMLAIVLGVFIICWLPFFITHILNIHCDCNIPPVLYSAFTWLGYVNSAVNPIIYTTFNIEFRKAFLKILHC

Row | SMILES | Ki (dopamine D2 receptors; read-out: D2 Ki, mean±SD, n=3) | Ki ([6]; read-out: α1A Ki, mean±SD, n=3) | Ki (5-HT2A receptor; [12]) | IC50 [1, 13] | Ki (SERT; [14]) | Ki (5-HT2C receptor; [15]) | Ki ([7]; read-out: α2A Ki, mean±SD, n=3) | Ki (DAT [2]; read-out: DAT Ki, mean±SD, n=3) | Ki (mouse TAAR1; [16]) | Ki (5-HT1A receptor; [17]) | Ki (rat TAAR1; [18]) | Ki (NET [4]; read-out: NET Ki, mean±SD, n=3) | increase of dopamine uptake (DAT [5]) | amount in plasma as % of parent compound methylone [9] | time at which Cmax was reached [9] | DAT/SERT ratio (DAT [5]) | Tmax [10] | also measured
1 | CNC(C)Cc1ccc2c(c1)OCO2 (stereo not drawn) [MDMA, 3,4-Methylenedioxymethamphetmine, reference compound] | – | – | – | – | – | – | – | – | – | – | – | – | – | – | – | – | – | Ki (dopamine D2 receptors): > 13 µM; Ki (5-HT2A receptor): 4.6 ± 1.1 µM; IC50 [1]: 2.5 µM; Ki (SERT): > 7.5 µM; Ki (DAT [2]): > 8.5 µM; Ki (mouse TAAR1): 3.1 ± 0.7 µM; IC50 (NET [3]): 0.38 µM; Ki (rat TAAR1): 0.25 ± 0.01 µM; Ki (NET [4]): > 8.7 µM; IC50 (DAT [5]): 21 µM
2 | CNC(C)Cc1ccc(O)c(O)c1 (stereo not drawn) [HHMA, 3,4-dihydroxymethamphetamine] | > 13 µM | > 9.5 µM | > 12 µM | 65 µM | > 7.4 µM | > 5.1 µM | 1.3 ± 0.1 µM | 1.9 µM | > 4.4 µM | > 18 µM | 3 ± 0.3 µM | 0.94 ± 0.14 µM | more than 200% | – | – | – | – | –
3 | CC(N)Cc1ccc(O)c(O)c1 (stereo not drawn) [HHA, 3,4-Dihydroxyamphetamine] | – | – | – | – | – | – | – | – | – | – | – | – | more than 200% | – | – | – | – | Ki (dopamine D2 receptors): > 13 µM; Ki [6]: > 9.5 µM; Ki (5-HT2A receptor): 9.2 ± 1.7 µM; IC50 [1]: 63 µM; Ki (SERT): > 7.4 µM; Ki (5-HT2C receptor): > 5.1 µM; Ki [7]: 2 ± 0.4 µM; Ki (DAT [2]): 2.9 ± 0.3 µM; Ki (mouse TAAR1): 1.4 ± 0.2 µM; IC50 (NET [3]): 0.18 µM; Ki (5-HT1A receptor): > 18 µM; Ki (rat TAAR1): 1.9 ± 0.4 µM; Ki (NET [4]): 0.79 ± 0.3 µM; IC50 (DAT [5]): 9.6 µM
4 | CC(N)C(=O)c1ccc2c(c1)OCO2 (stereo not drawn) [MDC, 3,4-methylenedioxycathinone] | > 13 µM | > 9.5 µM | > 12 µM | 13 µM | > 7.4 µM | > 5.1 µM | > 4.7 µM | > 8.5 µM | 3.5 ± 0.3 µM | > 17 µM | – | > 8.8 µM | – | 10–13% | 30 to 45 min | 0.38 (0.24–0.59) | – | delay of serum peak relative to methylone [8]: 30 min; serum level as % of the methylone levels ([8]; peak): about 20%
5 | CNC(C)C(=O)c1ccc(O)c(O)c1 (stereo not drawn) [HHMC, 3,4-Dihydroxymethcathinone] | > 13 µM | > 9.5 µM | > 12 µM | > 100 µM | > 7.4 µM | > 5.1 µM | > 4.7 µM | 7.1 ± 0.3 µM | > 4.4 µM | > 18 µM | 2.2 ± 0.1 µM | 4 ± 1 µM | more than 200% | 10–13% | 60 to 70 min | – | – | –
6 | CNC(C)C(=O)c1ccc(O)c(OC)c1 (stereo not drawn) [HMMC, 4-hydroxy-3-methyoxymethcathinone] | > 13 µM | > 9.5 µM | > 12 µM | > 100 µM | > 7.4 µM | > 5.1 µM | > 4.7 µM | > 8.5 µM | > 4.4 µM | > 18 µM | > 5.2 µM | 4 µM and 4.2 µM | – | 12–22% | 90 to 120 min | – | – | maximum dopamine transporter inhibition (DAT [5]; partial inhibition of dopamine uptake): 26%
7 | CCCC(C(=O)c1ccc(O)c(O)c1)N1CCCC1 (stereo not drawn) [HHPV, 3,4-dihydroxypyrovalerone] | > 13 µM | > 9.5 µM | > 12 µM | > 100 µM | > 7.4 µM | > 5.1 µM | > 4.7 µM | 0.02 µM and 0.023 µM | > 4.4 µM | 4.3 ± 1.6 µM | > 5.2 µM | 0.11 ± 0.01 µM | – | – | – | – | 3.43 to 4.28 h | maximal concentration as % of the parent compound MDPV [10]: 12–19%
8 | CNC(C)Cc1ccc(O)c(OC)c1 (stereo not drawn) [HMMA, 4-hydroxy-3-methoxymethamphetamine] | > 13 µM | > 9.5 µM | > 12 µM | 20 µM | > 7.4 µM | > 5.1 µM | > 4.7 µM | > 8.5 µM | 0.45 ± 0.05 µM | > 18 µM | 0.25 ± 0.04 µM | > 8.8 µM | – | – | – | 3.6 (1.4–8.9) | – | Cmax as % of the Cmax of MDMA [11]: 9–48%; Cmax of unconjugated form as % of the Cmax of MDMA [11]: 1–3%
9 | CCCC(C(=O)c1ccc(O)c(OC)c1)N1CCCC1 (stereo not drawn) [HMPV, 4-hydroxy-3-methyoxypyrovalerone] | > 13 µM | > 9.5 µM | > 12 µM | > 100 µM | > 7.4 µM | > 5.1 µM | > 4.7 µM | 2 ± 0.2 µM | > 4.4 µM | > 17 µM | > 5.2 µM | 6.2 ± 0.7 µM | – | – | – | – | 3.15 to 3.43 h | maximal concentration as % of the parent compound MDPV [10]: 53–61%
10 | CCCC(C(=O)c1ccc2c(c1)OCO2)N1CCCC1 (stereo not drawn) [MDPV, 3,4-methylenedioxypyrovalerone, reference compound] | > 13 µM | > 9.5 µM | > 12 µM | 12 µM | 2.2 ± 0.1 µM | 2 µM and 2.1 µM | > 5 µM | 0.01 µM and 0.011 µM | > 4.7 µM | 12 ± 2 µM | > 5 µM | 0.1 ± 0.01 µM | – | – | – | 226 (143–350) | 0.217 to 0.317 h | –
